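Compound exposure: 48 hours, 5 concentrations, 96-well plates. TGI marks complete inhibition of growth.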
Assays:
Assay in all cases: DTP human tumour cell line panel, 48 h
[1] = system: XF 498 CNS
[2] = system: RXF-631 renal
[3] = system: HOP-18 NSCLC
[4] = system: M19-MEL melanoma

Measured: TGI

CCCCCCCCCCCCCC(=O)OCC1OC(n2cc(F)c(=O)[nH]c2=O)C(NC(=O)OCc2ccccc2)C(OC(=O)CCCCCCCCCCCCC)C1O (stereo not drawn)
> 100 µM: [1] | [2] | [3] | [4]

CC1SC2=NC3=C(c4ccccc4C3=O)C(c3ccc(Cl)cc3)N2C1=O (stereo not drawn)
> 100 µM: [1] | [2] | [4]

Cc1cc2c(cc1C)[n+](=O)c(C(=O)C/C(=N/OCCCc1ccccc1)C(=O)Nc1cc(Cl)ccc1Cl)c(C)n2[O-]
> 100 µM: [1] | [2] | [3] | [4]

O=C1c2ccccc2C(=O)N1CCN(CCN1C(=O)c2ccccc2C1=O)Cn1cccn1
> 100 µM: [1] | [2] | [4]

O=C(O)C[C@H]1CCCCC12CCOC2=O (stereo partly drawn)
> 100 µM: [1] | [2] | [3] | [4]

From PubChem BioAssay (NCI)
